According to the NIST ThermoML archive (doi:10.1007/s10765-007-0223-x):
Numbers after ± are expanded uncertainties.

Assay: xn = mol fraction of the nth substance listed
Conditions: 101 kPa, Liquid; for speed of sound: Single path-length method

COC(C)(C)C [2-methoxy-2-methylpropane] + Cc1ccccc1
Conditions	mass density [kg/m3]	speed of sound [m/s]
288.15 K, x1 = 0.053	864.558 ± 0.4	1332.9 ± 2.1
288.15 K, x1 = 0.116	856.488 ± 0.41	1315.9 ± 2.1
288.15 K, x1 = 0.199	845.884 ± 0.42	1295.2 ± 2.1
288.15 K, x1 = 0.301	832.848 ± 0.44	1268.1 ± 2.1
288.15 K, x1 = 0.371	824.068 ± 0.45	1249.5 ± 2.1
288.15 K, x1 = 0.463	812.346 ± 0.47	1225.8 ± 2.1
288.15 K, x1 = 0.61	793.998 ± 0.49	1186.3 ± 2.1
288.15 K, x1 = 0.688	784.329 ± 0.51	1166 ± 2.1
288.15 K, x1 = 0.797	770.803 ± 0.53	1137.3 ± 2.1
288.15 K, x1 = 0.902	757.81 ± 0.55	1108.5 ± 2.1
288.15 K, x1 = 0.943	752.561 ± 0.56	1097.5 ± 2.1
288.15 K, x1 = 1	744.861 ± 0.55	1083.4 ± 2.1
290.65 K, x1 = 0.053	862.236 ± 0.4	1321.9 ± 2.1
290.65 K, x1 = 0.116	854.153 ± 0.41	1304.8 ± 2.1
290.65 K, x1 = 0.199	843.533 ± 0.42	1284.2 ± 2.1
290.65 K, x1 = 0.301	830.472 ± 0.44	1257.4 ± 2.1
290.65 K, x1 = 0.371	821.675 ± 0.46	1238.5 ± 2.1
290.65 K, x1 = 0.463	809.929 ± 0.47	1215 ± 2.1
290.65 K, x1 = 0.61	791.542 ± 0.5	1175.6 ± 2.1
290.65 K, x1 = 0.688	781.848 ± 0.51	1155 ± 2.1
290.65 K, x1 = 0.797	768.289 ± 0.53	1126.6 ± 2.1
290.65 K, x1 = 0.902	755.262 ± 0.55	1098.2 ± 2.1
290.65 K, x1 = 0.943	750 ± 0.56	1086.8 ± 2.1
290.65 K, x1 = 1	742.259 ± 0.56	1071.6 ± 2.1
293.15 K, x1 = 0.053	859.905 ± 0.4	1310.9 ± 2.1
293.15 K, x1 = 0.116	851.805 ± 0.41	1293.8 ± 2.1
293.15 K, x1 = 0.199	841.167 ± 0.43	1273.2 ± 2.1
293.15 K, x1 = 0.301	828.083 ± 0.45	1246.4 ± 2.1
293.15 K, x1 = 0.371	819.27 ± 0.46	1227.5 ± 2.1
293.15 K, x1 = 0.463	807.497 ± 0.48	1203.9 ± 2.1
293.15 K, x1 = 0.61	789.068 ± 0.5	1164.7 ± 2.1
293.15 K, x1 = 0.688	779.352 ± 0.52	1143.9 ± 2.1
293.15 K, x1 = 0.797	765.757 ± 0.54	1115.7 ± 2.1
293.15 K, x1 = 0.902	752.693 ± 0.56	1087.4 ± 2.1
293.15 K, x1 = 0.943	747.415 ± 0.56	1075.9 ± 2.1
293.15 K, x1 = 1	739.654 ± 0.56	1060 ± 2.1
295.65 K, x1 = 0.053	857.569 ± 0.41	1299.9 ± 2.1
295.65 K, x1 = 0.116	849.458 ± 0.42	1282.8 ± 2.1
295.65 K, x1 = 0.199	838.799 ± 0.43	1262.2 ± 2.1
295.65 K, x1 = 0.301	825.688 ± 0.45	1235.4 ± 2.1
295.65 K, x1 = 0.371	816.857 ± 0.46	1216.5 ± 2.1
295.65 K, x1 = 0.463	805.058 ± 0.48	1193 ± 2.1
295.65 K, x1 = 0.61	786.587 ± 0.51	1153.6 ± 2.1
295.65 K, x1 = 0.688	776.847 ± 0.52	1132.8 ± 2.1
295.65 K, x1 = 0.797	763.216 ± 0.54	1104.9 ± 2.1
295.65 K, x1 = 0.902	750.116 ± 0.56	1076.7 ± 2.1
295.65 K, x1 = 0.943	744.822 ± 0.57	1064.8 ± 2.1
295.65 K, x1 = 1	737.036 ± 0.56	1048.5 ± 2.1
298.15 K, x1 = 0.053	855.229 ± 0.41	1288.9 ± 2.1
298.15 K, x1 = 0.116	847.105 ± 0.42	1271.8 ± 2.1
298.15 K, x1 = 0.199	836.426 ± 0.44	1251.2 ± 2.1
298.15 K, x1 = 0.301	823.289 ± 0.45	1224.5 ± 2.1
298.15 K, x1 = 0.371	814.439 ± 0.47	1205.5 ± 2.1
298.15 K, x1 = 0.463	802.616 ± 0.48	1181.8 ± 2.1
298.15 K, x1 = 0.61	784.1 ± 0.51	1142.6 ± 2.1
298.15 K, x1 = 0.688	774.335 ± 0.52	1122 ± 2.1
298.15 K, x1 = 0.797	760.667 ± 0.54	1093.8 ± 2.1
298.15 K, x1 = 0.902	747.528 ± 0.56	1065.7 ± 2.1
298.15 K, x1 = 0.943	742.221 ± 0.57	1053.5 ± 2.1
298.15 K, x1 = 1	734.406 ± 0.57	1036.9 ± 2.1
300.65 K, x1 = 0.053	852.886 ± 0.41	1278.1 ± 2.1
300.65 K, x1 = 0.116	844.749 ± 0.42	1260.8 ± 2.1
300.65 K, x1 = 0.199	834.049 ± 0.44	1240.2 ± 2.1
300.65 K, x1 = 0.301	820.886 ± 0.46	1213.6 ± 2.1
300.65 K, x1 = 0.371	812.02 ± 0.47	1194.5 ± 2.1
300.65 K, x1 = 0.463	800.168 ± 0.49	1170.8 ± 2.1
300.65 K, x1 = 0.61	781.607 ± 0.51	1131.6 ± 2.1
300.65 K, x1 = 0.688	771.814 ± 0.53	1111.4 ± 2.1
300.65 K, x1 = 0.797	758.108 ± 0.55	1082.6 ± 2.1
300.65 K, x1 = 0.902	744.931 ± 0.57	1054.4 ± 2.1
300.65 K, x1 = 0.943	739.606 ± 0.58	1042.1 ± 2.1
300.65 K, x1 = 1	731.766 ± 0.57	1025.4 ± 2.1
303.15 K, x1 = 0.053	850.544 ± 0.42	1267.3 ± 2.1
303.15 K, x1 = 0.116	842.388 ± 0.43	1250 ± 2.1
303.15 K, x1 = 0.199	831.668 ± 0.44	1229.3 ± 2.1
303.15 K, x1 = 0.301	818.477 ± 0.46	1202.6 ± 2.1
303.15 K, x1 = 0.371	809.592 ± 0.47	1183.6 ± 2.1
303.15 K, x1 = 0.463	797.712 ± 0.49	1159.8 ± 2.1
303.15 K, x1 = 0.61	779.104 ± 0.52	1120.6 ± 2.1
303.15 K, x1 = 0.688	769.287 ± 0.53	1100.2 ± 2.1
303.15 K, x1 = 0.797	755.539 ± 0.55	1071.4 ± 2.1
303.15 K, x1 = 0.902	742.321 ± 0.57	1043.1 ± 2.1
303.15 K, x1 = 0.943	736.98 ± 0.58	1030.7 ± 2.1
303.15 K, x1 = 1	729.112 ± 0.58	1013.9 ± 2.1
305.65 K, x1 = 0.053	–	1256.5 ± 2.1
305.65 K, x1 = 0.116	–	1239.1 ± 2.1
305.65 K, x1 = 0.199	–	1218.4 ± 2.1
305.65 K, x1 = 0.301	–	1191.7 ± 2.1
305.65 K, x1 = 0.371	–	1172.6 ± 2.1
305.65 K, x1 = 0.463	–	1148.8 ± 2.1
305.65 K, x1 = 0.61	–	1109.7 ± 2.1
305.65 K, x1 = 0.688	–	1089 ± 2.1
305.65 K, x1 = 0.797	–	1060.2 ± 2.1
305.65 K, x1 = 0.902	–	1031.7 ± 2.1
305.65 K, x1 = 0.943	–	1019.3 ± 2.1
305.65 K, x1 = 1	–	1002.4 ± 2.1
